Source: US8188094B2, “Inhibitors of glutaminyl cyclase” (Probiodrug AG, priority 2007, dated 2012)

Target: glutaminyl cyclase (QC) (Homo sapiens, UniProt Q16769)
Assay: QC inhibitor assay (fluorometric / spectrophotometric QC activity assays)
Assay type: biochemical
Conditions: QC inhibition, 30° C.; for Ki: progress curves fitted to the general equation for competitive inhibition
Method: All measurements were performed with a BioAssay Reader HTS-7000Plus for microplates (Perkin Elmer) at 30° C. QC activity was evaluated fluorometrically using H-Gln-βNA. The samples consisted of 0.2 mM fluorogenic substrate, 0.25 U pyroglutamyl aminopeptidase (Unizyme, Hørsholm, Denmark) in 0.2 M Tris/HCl, pH 8.0 containing 20 mM EDTA and an appropriately diluted aliquot of QC in a final volume of 250 μl. Excitation/emission wavelengths were 320/410 nm. The assay reactions were initiated by addition of glutaminyl cyclase. QC activity was determined from a standard curve of β-naphthylamine under assay conditions. One unit is defined as the amount of QC catalyzing the formation of 1 μmol pGlu-βNA from H-Gln-βNA per minute under the described conditions.
In a second fluorometric assay, QC was activity determined using H-Gln-AMC as substrate. Reactions were carried out at 30° C. utilizing the NOVOStar reader for microplates (BMG labtechnologies). The samples consisted of varying concentrations of the fluorogenic substrate, 0.1 U pyroglutamyl aminopeptidase (Qiagen) in 0.05 M Tris/HCl, pH 8.0 containing 5 mM EDTA and an appropriately diluted aliquot of QC in a final volume of 250 μl. Excitation/emission wavelengths were 380/460 nm. The assay reactions were initiated by addition of glutaminyl cyclase. QC activity was determined from a standard curve of 7-amino-4-methylcoumarin under assay conditions. The kinetic data were evaluated using GraFit software.
This novel assay was used to determine the kinetic parameters for most of the QC substrates. QC activity was analyzed spectrophotometrically using a continuous method, that was derived by adapting a previous discontinuous assay (Bateman, R. C. J. 1989 J Neurosci Methods 30, 23-28) utilizing glutamate dehydrogenase as auxiliary enzyme. Samples consisted of the respective QC substrate, 0.3 mM NADH, 14 mM α-Ketoglutaric acid and 30 U/ml glutamate dehydrogenase in a final volume of 250 μl. Reactions were started by addition of QC and persued by monitoring of the decrease in absorbance at 340 nm for 8-15 min.
The initial velocities were evaluated and the enzymatic activity was determined from a standard curve of ammonia under assay conditions. All samples were measured at 30° C., using either the SPECTRAFluor Plus or the Sunrise (both from TECAN) reader for microplates. Kinetic data was evaluated using GraFit software.
For inhibitor testing, the sample composition was the same as described above, except of the putative inhibitory compound added. For a rapid test of QC-inhibition, samples contained 4 mM of the respective inhibitor and a substrate concentration at 1 KM. For detailed investigations of the inhibition and determination of Ki-values, influence of the inhibitor on the auxiliary enzymes was investigated first. In every case, there was no influence on either enzyme detected, thus enabling the reliable determination of the QC inhibition. The inhibitory constant was evaluated by fitting the set of progress curves to the general equation for competitive inhibition using GraFit software.

Chain of glutaminyl cyclase (QC) (Q16769 29-361): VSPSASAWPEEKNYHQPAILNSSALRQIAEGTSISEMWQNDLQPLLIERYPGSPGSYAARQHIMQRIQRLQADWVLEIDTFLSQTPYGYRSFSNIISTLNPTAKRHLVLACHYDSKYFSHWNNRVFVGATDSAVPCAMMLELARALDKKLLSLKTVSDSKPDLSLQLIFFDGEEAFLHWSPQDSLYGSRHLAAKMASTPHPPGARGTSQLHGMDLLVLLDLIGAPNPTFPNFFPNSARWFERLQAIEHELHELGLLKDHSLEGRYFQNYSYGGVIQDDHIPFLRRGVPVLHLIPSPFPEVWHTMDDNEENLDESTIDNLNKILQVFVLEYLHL

| IC50 [µM] | Ki [µM] | SMILES |
| --- | --- | --- |
| 16.9 |  | O=[N+]([O-])c1ccc(-c2cc(NCCCn3ccnc3)nc(-c3ccncc3)n2)cc1 [Example 24, N-(3-(1H-imidazol-1-yl)propyl)-6-(4-nitrophenyl)-2-(pyridin-4-yl)pyrimidin-4-amine] |
| 91.1 |  | FC(F)(F)c1cc(-c2cc(NCCCn3ccnc3)nc(-c3ccccc3)n2)cc(C(F)(F)F)c1 [Example 7, N-(3-(1H-imidazol-1-yl)propyl)-6-(3,5-bis(trifluoromethyl)phenyl)-2-phenyl-pyrimidin-4-amine] |
| 26.5 | 3.06 | c1ccc(C2CC2c2cc(NCCCn3ccnc3)nc(-c3ccncc3)n2)cc1 (stereo not drawn) [Example 33, N-(3-(1H-imidazol-1-yl)propyl)-6-(2-phenylcyclopropyl)-2-(pyridin-4-yl)-pyrimidin-4-amine] |
| 36.8 | 4.19 | FC(F)(F)c1cc(NCCCn2ccnc2)nc(-c2ccncc2)n1 [Example 18, N-(3-(1H-imidazol-1-yl)propyl)-6-(trifluoromethyl)-2-(pyridin-4-yl)pyrimidin-4-amine] |
| 40.3 | 14.9 | c1ccc(-c2nc(NCCCn3ccnc3)cc(-c3ccoc3)n2)cc1 [Example 13, N-(3-(1H-imidazol-1-yl)propyl)-6-(furan-3-yl)-2-phenylpyrimidin-4-amine] |
| 27.3 | 3.7 | c1cc(-c2nc(NCCCn3ccnc3)cc(-c3ccoc3)n2)ccn1 [Example 17, N-(3-(1H-imidazol-1-yl)propyl)-6-(furan-3-yl)-2-(pyridin-4-yl)pyrimidin-4-amine] |
| 8.18 | 0.83 | COc1ccccc1-c1cc(NCCCn2ccnc2)nc(-c2ccncc2)n1 [Example 26, N-(3-(1H-imidazol-1-yl)propyl)-6-(2-methoxyphenyl)-2-(pyridin-4-yl)pyrimidin-4-amine] |
| 9.37 | 3.75 | COc1cccc(-c2cc(NCCCn3ccnc3)nc(-c3ccccc3)n2)c1 [Example 12, N-(3-(1H-imidazol-1-yl)propyl)-6-(3-methoxyphenyl)-2-phenylpyrimidin-4-amine] |
| 26.8 | 3.52 | c1ccc2c(c1)CC(c1cc(NCCCn3ccnc3)nc(-c3ccncc3)n1)C2 [Example 36, N-(3-(1H-imidazol-1-yl)propyl)-6-(2,3-dihydro-1H-inden-2-yl)-2-(pyridin-4-yl)-pyrimidin-4-amine] |
| 7.08 | 1.16 | COc1cc(-c2cc(NCCCn3ccnc3)nc(-c3ccccc3)n2)cc(OC)c1OC [Example 8, N-(3-(1H-imidazol-1-yl)propyl)-6-(3,4,5-trimethoxyphenyl)-2-phenylpyrimidin-4-amine] |
| 18.5 | 2.26 | COc1ccc(-c2cc(NCCCn3ccnc3)nc(C)n2)cc1 [Example 21, N-(3-(1H-imidazol-1-yl)propyl)-6-(4-methoxyphenyl)-2-methylpyrimidin-4-amine] |
| 47.8 | 18 | Cc1cc(NCCCn2ccnc2)nc(-c2ccccc2)n1 [Example 1, N-(3-(1H-imidazol-1-yl)propyl)-6-methyl-2-phenylpyrimidin-4-amine] |
| 1.09 | 0.281 | COc1ccccc1-c1cc(NCCCn2cncc2C)nc(-c2ccncc2)n1 [Example 28, 6-(2-Methoxyphenyl)-N-(3-(5-methyl-1H-imidazol-1-yl)propyl)-2-(pyridin-4-yl)pyrimidin-4-amine] |
| 22.6 |  | COc1ccccc1-c1cc(NCCCn2ccnc2)nc(-c2ccccc2)n1 [Example 11, N-(3-(1H-imidazol-1-yl)propyl)-6-(2-methoxyphenyl)-2-phenylpyrimidin-4-amine] |
| 28.1 | 4.6 | Cc1nc(NCCCn2ccnc2)cc(-c2ccccc2)n1 [Example 3, N-(3-(1H-imidazol-1-yl)propyl)-2-methyl-6-phenylpyrimidin-4-amine] |
| 30.3 | 9.31 | Cc1cc(NCCCn2ccnc2)nc(C)n1 [Example 4, N-(3-(1H-imidazol-1-yl)propyl)-2,6-dimethylpyrimidin-4-amine] |
| 116 |  | c1ccc(-c2nc(NCCCn3ccnc3)cc(C34CC5CC(CC(C5)C3)C4)n2)cc1 [Example 14, N-(3-(1H-imidazol-1-yl)propyl)-6-(adamant-1-yl)-2-phenylpyrimidin-4-amine] |
| 13.3 | 3.52 | Cc1ccc(-c2cc(NCCCn3ccnc3)nc(C)n2)cc1 [Example 5, N-(3-(1H-imidazol-1-yl)propyl)-2-methyl-6-p-tolylpyrimidin-4-amine] |
| 30.6 |  | Cc1ccc(-c2cc(NCCCn3ccnc3)nc(-c3ccncc3)n2)cc1 [Example 25, N-(3-(1H-imidazol-1-yl)propyl)-2-(pyridin-4-yl)-6-p-tolylpyrimidin-4-amine] |
| 49.8 | 3.9 | c1ccc(-c2cc(NCCCn3ccnc3)nc(-c3ccccc3)n2)cc1 [Example 2, N-(3-(1H-imidazol-1-yl)propyl)-2,6-diphenylpyrimidin-4-amin] |
| 19 |  | COc1cccc(-c2cc(NCCCn3ccnc3)nc(-c3ccncc3)n2)c1 [Example 27, N-(3-(1H-imidazol-1-yl)propyl)-6-(3-methoxyphenyl)-2-(pyridin-4-yl)pyrimidin-4-amine] |
| 48.3 | 6.82 | Cc1nc(NCCCn2ccnc2)cc(C2Cc3ccccc3C2)n1 [Example 34, N-(3-(1H-imidazol-1-yl)propyl)-6-(2,3-dihydro-1H-inden-2-yl)-2-methyl-pyrimidin-4-amine] |
| 20.9 | 2.7 | COc1cccc(-c2cc(NCCCn3ccnc3)nc(C)n2)c1 [Example 19, N-(3-(1H-imidazol-1-yl)propyl)-6-(3-methoxyphenyl)-2-methylpyrimidin-4-amine] |
| 6.43 | 0.72 | COc1cc(-c2cc(NCCCn3ccnc3)nc(C)n2)cc(OC)c1OC [Example 20, N-(3-(1H-imidazol-1-yl)propyl)-6-(3,4,5-trimethoxy-phenyl)-2-methyl-pyrimidin-4-amine] |
| 14.4 |  | Cc1ccc(-c2cc(NCCCn3ccnc3)nc(-c3ccccc3)n2)cc1 [Example 9, N-(3-(1H-imidazol-1-yl)propyl)-2-phenyl-6-p-tolylpyrimidin-4-amine] |
| 31.4 | 3.56 | Cc1nc(NCCCn2ccnc2)cc(-c2ccc3ncccc3c2)n1 [Example 31, N-(3-(1H-imidazol-1-yl)propyl)-2-methyl-6-(quinolin-6-yl)pyrimidin-4-amine] |
| 12.4 |  | O=[N+]([O-])c1ccc(-c2cc(NCCCn3ccnc3)nc(-c3ccccc3)n2)cc1 [Example 10, N-(3-(1H-imidazol-1-yl)propyl)-6-(4-nitrophenyl)-2-phenylpyrimidin-4-amine] |
| 14.7 | 4.69 | Cc1nc(NCCCn2ccnc2)cc(-c2cc(C(F)(F)F)cc(C(F)(F)F)c2)n1 [Example 6, N-(3-(1H-imidazol-1-yl)propyl)-6-(3,5-bis(trifluoromethyl)phenyl)-2-methyl-pyrimidin-4-amine] |
| 100 |  | c1ccc(-c2nc(Nc3ccc4nc[nH]c4c3)cc(-c3ccc4ncccc4c3)n2)cc1 [Example 30, N-(2-phenyl-6-(quinolin-6-yl)pyrimidin-4-yl)-3H-benzo[d]imidazol-5-amine] |
| 19.3 | 2.16 | COc1ccccc1-c1cc(NCCCn2ccnc2)nc(C)n1 [Example 22, N-(3-(1H-imidazol-1-yl)propyl)-6-(2-methoxyphenyl)-2-methylpyrimidin-4-amine] |
